Key:
PRRSV = PRRSV protein expression, fluorescent immunostaining of nucleocapsids; format: cell-based; settings: 10 μM; 48 hours after inoculation
Procedure: To evaluate the inhibitory effect of rottlerin or rottlerin liposomes against PRRSV protein expression, the cells were treated with 5 μM rottlerin liposomes and 10 μM rottlerin, and 48 hours after inoculation, fluorescent immunostaining was performed using primary antibody for PRRSV nucleocapsids and Alexa 488 secondary antibody.

PRRSV FL12 = test: PRRSV animal model, 4-week-old pigs, intranasal spray; format: in vivo; settings: 1 mg intranasal
Procedure: Validity assessment for target animals were performed using 4-week-old pigs. A total of 15 pigs were used, and randomly distributed into a positive PRRSV FL12 administration group, a rottlerin liposome 100 μg administration group (R-L 100 μg), a rottlerin liposome 1 mg administration group (R-L 1 mg), and a rottlerin raw material 1 mg administration group (R 1 mg), wherein four animals were used for each group (three animals were used for the rottlerin liposome 100 μg administration group).
The pigs of each group were inoculated with 10^5 TCID50/ml FL12, and after the inoculation, 2 ml of each therapeutic agent was intranasally administered by spray.
Sera were separated from the pigs on days 1, 3, 7, 14, and 19, and the pigs were euthanized and necropsied on day 19 of inoculation. The lung tissue of each pig was collected and lesions were evaluated, thereby calculating lung lesion scores. […]
Microscopic lung lesions were measured from 0 to 4 according to the degree of interstitial pneumonia as follows: (0, no lesions; 1, mild lesions or less than half being lesions; 2, common lesions or half being lesions; 3, moderately spread lesions or more than half being lesions; 4, severe lesions or full lesions). […]

CC(=O)c1c(O)c(C)c(O)c(Cc2c(O)c3c(c(C(=O)/C=C/c4ccccc4)c2O)OC(C)(C)C=C3)c1O [rottlerin]
PRRSV virus proteins detected by fluorescent immunostaining (PRRSV): virus proteins were not detected | clinical symptom score (PRRSV FL12; scored daily 0 to 6): significant decrease in clinical symptom score on days 8, 16, 17, and 18 | area under curve (AUC) of viremia, qRT-PCR (PRRSV FL12; vs FL12 group, p≤0.05): significantly lower
